Results as given in patent US20240383872A1, “NOVEL PYRIDINE AND PYRAZINE COMPOUNDS AS INHIBITORS OF CANNABINOID RECEPTOR 2” (HOFFMANN-LA ROCHE INC., priority 2018, published 2024).

Target: human CB2 receptor (CNR2) (Homo sapiens (Human), UniProt P34972)
Assay: Radioligand binding assay, human CB2
Conditions: HEK cell membranes expressing human CNR2, [3H]-CP-55,940 radioligand
Method: The affinity of the compounds of the invention for cannabinoid CB1 receptors was determined using recommended amounts of membrane preparations (PerkinElmer) of human embryonic kidney (HEK) cells expressing the human CNRI or CNR2 receptors in conjunction with 1.5 or 2.6 nM [3H]-CP-55,940 (Perkin Elmer) as radioligand, respectively. Binding was performed in binding buffer (50 mM Tris, 5 mM MgCl2, 2.5 mM EDTA, and 0.5% (wt/vol) fatty acid free BSA, pH 7.4 for CB1 receptor and 50 mM Tris, 5 mM MgCl2, 2.5 mM EGTA, and 0.1% (wt/vol) fatty acid free BSA, pH 7.4 for CB2 receptor) in a total volume of 0.2 ml for 1 h at 30° C. shaking. The reaction was terminated by rapid filtration through microfiltration plates coated with 0.5% polyethylenimine (UniFilter GF/B filter plate; Packard). Bound radioactivity was analyzed for Ki using nonlinear regression analysis (Activity Base, ID Business Solution, Limited), with the Kd values for [3H]CP55,940 determined from saturation experiments. The compounds of formula (I) show an excellent affinity for the CB2 receptor.
The compounds according to formula (I) have an activity in the above assay (Ki) between 0.5 nM and 10 μM. Particular compounds of formula (I) have an activity in the above assay (Ki) between 0.5 nM and 3 μM. Other particular compounds of formula (I) have an activity in the above assay (Ki) between 0.5 nM and 100 nM.

Chain of human CB2 receptor (CNR2) (P34972 whole entry): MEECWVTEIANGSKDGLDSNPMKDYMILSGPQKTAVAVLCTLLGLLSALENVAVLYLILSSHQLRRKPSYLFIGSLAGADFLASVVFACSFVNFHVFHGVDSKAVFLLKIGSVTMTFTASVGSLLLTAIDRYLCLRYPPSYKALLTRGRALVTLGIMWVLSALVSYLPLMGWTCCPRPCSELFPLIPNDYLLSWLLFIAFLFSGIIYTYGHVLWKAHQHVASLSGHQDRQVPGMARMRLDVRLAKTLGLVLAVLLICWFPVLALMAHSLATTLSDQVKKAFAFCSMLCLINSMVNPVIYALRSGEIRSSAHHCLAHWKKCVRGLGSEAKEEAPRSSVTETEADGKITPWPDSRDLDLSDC

Row | Ki [nM] | Structure (SMILES)
1 | 70 | CC(C)[C@@H](COCF)NC(=O)c1ccc(N2CCCC2)c(OCC2CC2)n1 [Example 19, 6-(Cylopropylmethoxy)-N-[(2S)-1-(fluoromethoxy)-3-methylbutan-2-yl]-5-(pyrrolidin-1-yl)pyridine-2-carboxamide]
2 | 18 | COC1CN(c2ccc(C(=O)N[C@H](COCCF)CC(C)C)nc2OCC2CC2)C1 [Example 27, 6-(Cyclopropylmethoxy)-N-[(2S)-1-(2-fluoroethoxy)-4-methylpentan-2-yl]-5-(3-methoxyazetidin-1-yl) pyridine-2-carboxamide]
3 | 68 | CCC(CC)(COCCCF)NC(=O)c1ccc(N2CC(OC)C2)c(OCC2CC2)n1 [Example 36, 6-(Cyclopropylmethoxy)-N-{3-[(3-fluoropropoxy)methyl]pentan-3-yl}-5-(3-methoxyazetidin-1-yl)pyridine-2-carboxamide]
4 | 269 | COC1CN(c2ccc(C(=O)N[C@H](COCF)C(C)C)nc2OCC2CC2)C1 [Example 29, 6-(Cyclopropylmethoxy)-N-[(2S)-1-(fluoromethoxy)-3-methylbutan-2-yl]-5-(3-methoxyazetidin-1-yl) pyridine-2-carboxamide]
5 | 33 | CCC(CC)(COCF)NC(=O)c1ccc(N2CC(OC)C2)c(OCC2CC2)n1 [Example 34, 6-(Cyclopropylmethoxy)-N-{3-[(fluoromethoxy)methyl]pentan-3-yl}-5-(3-methoxyazetidin-1-yl) pyridine-2-carboxamide]
6 | 671 | C[C@@H](COCCCF)NC(=O)c1ccc(N2CCCC2)c(OCC2CC2)n1 [Example 24, 6-(Cyclopropylmethoxy)-N-[(2S)-1-(3-fluoropropoxy)propan-2-yl]-5-(pyrrolidin-1-yl)pyridine-2-carboxamide]
7 | 247 | COC1CN(c2ccc(C(=O)N[C@H](COCCCF)C(C)C)nc2OCC2CC2)C1 [Example 31, 6-(Cyclopropylmethoxy)-N-[(2S)-1-(3-fluoropropoxy)-3-methylbutan-2-yl]-5-(3-methoxyazetidin-1-yl) pyridine-2-carboxamide]
8 | 524 | CCC(CC)(NC(=O)c1ccc(N2CC(C)(F)C2)c(OCC2CC2)n1)C(=O)NCCCF [Example 39, 6-(Cyclopropylmethoxy)-5-(3-fluoro-3-methylazetidin-1-yl)-N-(3-(3-fluoropropylcarbamoyl)pentan-3-yl) picolinamide]
9 | 2810 | COC1CN(c2ccc(C(=O)N[C@@H](C)COCCCF)nc2OCC2CC2)C1 [Example 33, 6-(Cyclopropylmethoxy)-N-[(2S)-1-(3-fluoropropoxy)propan-2-yl]-5-(3-methoxyazetidin-1-yl)pyridine-2-carboxamide]
10 | 787 | C[C@@H](COCF)NC(=O)c1ccc(N2CCCC2)c(OCC2CC2)n1 [Example 22, 6-(Cyclopropylmethoxy)-N-[(2S)-1-(fluoromethoxy)propan-2-yl]-5-(pyrrolidin-1-yl)pyridine-2-carboxamide]
11 | 165 | COC1CN(c2ccc(C(=O)N[C@H](COCCF)C(C)C)nc2OCC2CC2)C1 [Example 30, 6-(Cyclopropylmethoxy)-N-[(2S)-1-(2-fluoroethoxy)-3-methylbutan-2-yl]-5-(3-methoxyazetidin-1-yl) pyridine-2-carboxamide]
12 | 1300 | COC1CN(c2ccc(C(=O)N[C@@H](COCCF)CC(C)C)nc2OCC2CC2)C1 [Example 38, 6-(Cyclopropylmethoxy)-N-[(2R)-1-(2-fluoroethoxy)-4-methylpentan-2-yl]-5-(3-methoxyazetidin-1-yl) pyridine-2-carboxamide]
13 | 15 | CC(C)C[C@H](NC(=O)c1ccc(N2CCCC2)c(OCC2CC2)n1)C(=O)OCCF [Example 14, 2-Fluoroethyl N-[6-(cyclopropylmethoxy)-5-(pyrrolidin-1-yl)pyridine-2-carbonyl]-L-leucinate]

Further lines, the compound ahead of its results:

Row | Structure (SMILES) | Ki [nM]
14 | CCC(CC)(NC(=O)c1ccc(N2CC(OC)C2)c(OCC2CC2)n1)C(=O)OCF [Example 1, Fluoromethyl 2-{[6-(cyclopropylmethoxy)-5-(3-methoxyazetidin-1-yl)pyridine-2-carbonyl]amino}-2-ethylbutanoate] | 2
15 | CC(C)C[C@H](COCCF)NC(=O)c1ccc(N2CCCC2)c(OCC2CC2)n1 [Example 37, 6-(Cyclopropylmethoxy)-N-[(2R)-1-(2-fluoroethoxy)-4-methylpentan-2-yl]-5-(pyrrolidin-1-yl)pyridine-2-carboxamide] | 288
16 | CCC(CC)(NC(=O)c1ccc(N2CCCC2)c(OCC2CC2)n1)C(=O)OCCF [Example 9, 2-Fluoroethyl 2-{[6-(cyclopropylmethoxy)-5-(pyrrolidin-1-yl)pyridine-2-carbonyl]amino}-2-ethylbutanoate] | 3
17 | CCC(CC)(NC(=O)c1ccc(N2CC(F)(F)C2)c(OCC2CC2)n1)C(=O)OCCCF [Example 6, 3-Fluoropropyl 2-{[6-(cyclopropylmethoxy)-5-(3,3-difluoroazetidin-1-yl)pyridine-2-carbonyl]amino}-2-ethylbutanoate] | 19
18 | CCC(CC)(NC(=O)c1ccc(N2CC(F)(F)C2)c(OCC2CC2)n1)C(=O)OCF [Example 4, Fluoromethyl 2-{[6-(cyclopropylmethoxy)-5-(3,3-difluoroazetidin-1-yl)pyridine-2-carbonyl]amino}-2-ethylbutanoate] | 6
19 | CC(C)C[C@H](NC(=O)c1ccc(N2CCCC2)c(OCC2CC2)n1)C(=O)OCF [Example 13, Fluoromethyl N-[6-(cyclopropylmethoxy)-5-(pyrrolidin-1-yl)pyridine-2-carbonyl]-L-leucinate] | 63
20 | COC1CN(c2ccc(C(=O)N[C@@H](CC(C)C)C(=O)OCF)nc2OCC2CC2)C1 [Example 10, Fluoromethyl N-[6-(cyclopropylmethoxy)-5-(3-methoxyazetidin-1-yl)pyridine-2-carbonyl]-L-leucinate] | 336
21 | COC1CN(c2ccc(C(=O)N[C@@H](CC(C)C)C(=O)OCCF)nc2OCC2CC2)C1 [Example 11, 2-Fluoroethyl N-[6-(cyclopropylmethoxy)-5-(3-methoxyazetidin-1-yl)pyridine-2-carbonyl]-L-leucinate] | 15
22 | CCC(CC)(NC(=O)c1ccc(N2CC(OC)C2)c(OCC2CC2)n1)C(=O)OCCCF [Example 3, 3-Fluoropropyl 2-{[6-(cyclopropylmethoxy)-5-(3-methoxyazetidin-1-yl)pyridine-2-carbonyl]amino}-2-ethylbutanoate] | 6
23 | CC(C)C[C@H](NC(=O)c1ccc(N2CCCC2)c(OCC2CC2)n1)C(=O)OCCCF [Example 15, 3-Fluoropropyl N-[6-(cyclopropylmethoxy)-5-(pyrrolidin-1-yl)pyridine-2-carbonyl]-L-leucinate] | 40
24 | CC(C)C[C@@H](COCCF)NC(=O)c1ccc(N2CCCC2)c(OCC2CC2)n1 [Example 17, 6-(Cyclopropylmethoxy)-N-[(2S)-1-(2-fluoroethoxy)-4-methylpentan-2-yl]-5-(pyrrolidin-1-yl)pyridine-2-carboxamide] | 10
25 | CC(C)[C@@H](COCCCF)NC(=O)c1ccc(N2CCCC2)c(OCC2CC2)n1 [Example 21, 6-(Cyclopropylmethoxy)-N-[(2S)-1-(3-fluoropropoxy)-3-methylbutan-2-yl]-5-(pyrrolidin-1-yl)pyridine-2-carboxamide] | 156
26 | COC1CN(c2ccc(C(=O)N[C@@H](CC(C)C)C(=O)OCCCF)nc2OCC2CC2)C1 [Example 12, 3-Fluoropropyl N-[6-(cyclopropylmethoxy)-5-(3-methoxyazetidin-1-yl)pyridine-2-carbonyl]-L-leucinate] | 46
27 | CCC(CC)(NC(=O)c1ccc(N2CCCC2)c(OCC2CC2)n1)C(=O)OCF [Example 8, 3- Fluoromethyl 2-{[6-(cyclopropylmethoxy)-5-(pyrrolidin-1-yl)pyridine-2-carbonyl]amino}-2-ethylbutanoate] | 2
28 | CC(C)[C@@H](COCCF)NC(=O)c1ccc(N2CCCC2)c(OCC2CC2)n1 [Example 20, 6-(Cyclopropylmethoxy)-N-[(2S)-1-(2-fluoroethoxy)-3-methylbutan-2-yl]-5-(pyrrolidin-1-yl)pyridine-2-carboxamide] | 60
29 | CC(C)C[C@@H](COCCF)NC(=O)c1ccc(N2CC(F)(F)C2)c(OCC2CC2)n1 [Example 26, 6-(Cyclopropylmethoxy)-5-(3,3-difluoroazetidin-1-yl)-N-[(2S)-1-(2-fluoroethoxy)-4-methylpentan-2-yl]pyridine-2-carboxamide] | 24
30 | CCC(CC)(NC(=O)c1ccc(N2CCCC2)c(OCC2CC2)n1)C(=O)OCCCF [Example 7, 3-Fluoropropyl 2-{[6-(cyclopropylmethoxy)-5-(pyrrolidin-1-yl)pyridine-2-carbonyl]amino}-2-ethylbutanoate] | 5
31 | COC1CN(c2ccc(C(=O)N[C@H](COCCCF)CC(C)C)nc2OCC2CC2)C1 [Example 28, 6-(Cyclopropylmethoxy)-N-[(2S)-1-(3-fluoropropoxy)-4-methylpentan-2-yl]-5-(3-methoxyazetidin-1-yl) pyridine-2-carboxamide] | 31
32 | CC(C)C[C@@H](COCCCF)NC(=O)c1ccc(N2CCCC2)c(OCC2CC2)n1 [Example 18, 6-(Cyclopropylmethoxy)-N-[(2S)-1-(3-fluoropropoxy)-4-methylpentan-2-yl]-5-(pyrrolidin-1-yl) pyridine-2-carboxamide] | 40
